Source: article PMC6541917 (Journal of medicinal chemistry, 2018)

Legend:
HIV-1NL4–3 [1] = assay: antiviral p24 Gag assay in MT-4 cells, wild-type virus; assay type: cell-based; conditions: Human immunodeficiency virus 1, MT4, read-out: mean IC50 ± SD
HIV-1ATV^R5μM = assay type: cell-based; conditions: HIV-1ATV^R5μM compared to wild-type HIV-1NL4–3
HIV-1LPV^R5μM = assay type: cell-based; conditions: HIV-1LPV^R5μM compared to wild-type HIV-1NL4–3
HIV-1APV^R5 μM = assay type: cell-based; conditions: HIV-1APV^R5 μM compared to wild-type HIV-1NL4–3
[2] = tested on: multidrug-resistant HIV-1 variants; assay: microbe, parasite or virus in culture; assay type: cell-based; conditions: Human immunodeficiency virus 1, read-out: antiviral IC50, range over variants
MT-4 cells = conditions: ratio of CC50 to IC50
in vitro = conditions: human
HIV-1NL4–3 [3] = assay: antiviral assay in MT-4 human T-lymphocytes exposed to HIV-1NL4–3; assay type: cell-based; conditions: Human immunodeficiency virus 1, MT4, in Homo sapiens, read-out: antiviral IC50

Row | Compound | IC50 (HIV-1NL4–3 [1]) | IC50 fold-change (in parentheses) (HIV-1ATV^R5μM) | IC50 fold-change (in parentheses) (HIV-1APV^R5 μM) | selectivity index (MT-4 cells) | further results
1 | CC(C)CN(C[C@@H](O)[C@H](Cc1ccccc1)NC(=O)O[C@H]1CO[C@H]2OCC[C@H]21)S(=O)(=O)c1ccc(N)cc1 [DRV, darunavir, reference compound] | 3.5 ± 0.09 nM |  |  |  | 
2 | COc1ccc(S(=O)(=O)N(CC(C)C)C[C@@H](O)[C@H](Cc2ccccc2)NC(=O)O[C@H]2C[C@H]3OC(=O)N(CC(C)C)[C@H]3C2)cc1 [Inhibitor 4l, (3aS,5R,6aR)-3-Isobutyl-2-oxohexahydro-2H-cyclopenta[d]-oxazol-5-yl ((2S,3R)-3-Hydroxy-4-((N-isobutyl-4-methoxyphenyl)sulfonamido)-1-phenylbutan-2-yl)carbamate] |  | 1 | 7 | >2439 | IC50 fold-change (in parentheses) (HIV-1LPV^R5μM): 15; IC50 [2]: 33 to 615 nM
3 | COc1ccc(S(=O)(=O)N(CC(C)C)C[C@@H](O)[C@H](Cc2ccccc2)NC(=O)O[C@@H]2C[C@@H]3OC(=O)N(C)[C@@H]3C2)cc1 [Inhibitor 4d, (3aR,5S,6aS)-3-Methyl-2-oxohexahydro-2H-cyclopenta[d]-oxazol-5-yl ((2S,3R)-3-Hydroxy-4-((N-isobutyl-4-methoxyphenyl)sulfonamido)-1-phenylbutan-2-yl)carbamate] |  |  |  | >229 | 
4 | COc1ccc(S(=O)(=O)N(CC(C)C)C[C@@H](O)[C@H](Cc2ccccc2)NC(=O)O[C@H]2C[C@H]3OC(=O)N(C)[C@H]3C2)cc1 [Inhibitor 4c, (3aS,5R,6aR)-3-Methyl-2-oxohexahydro-2H-cyclopenta[d]-oxazol-5-yl ((2S,3R)-3-Hydroxy-4-((N-isobutyl-4-methoxyphenyl)sulfonamido)-1-phenylbutan-2-yl)carbamate] |  |  |  | >2778 | CC50 (in vitro): > 100000 nM
5 | COc1ccc(S(=O)(=O)N(CC(C)C)C[C@@H](O)[C@H](Cc2ccccc2)NC(=O)O[C@@H]2C[C@@H]3NC(=O)O[C@@H]3C2)cc1 [Inhibitor 4a, (3aS,5R,6aR)-2-Oxohexahydro-2H-cyclopenta[d]oxazol-5-yl ((2S,3R)-3-Hydroxy-4-((N-isobutyl-4-methoxyphenyl)-sulfonamido)-1-phenylbutan-2-yl)carbamate] |  |  |  | >2070 | 
6 | C=C(C)CN1C(=O)O[C@@H]2C[C@H](OC(=O)N[C@@H](Cc3ccccc3)[C@H](O)CN(CC(C)C)S(=O)(=O)c3ccc(OC)cc3)C[C@@H]21 [Inhibitor 4k, (3aS,5R,6aR)-3-(2-Methylallyl)-2-oxohexahydro-2H-cyclopenta[d]oxazol-5-yl ((2S,3R)-3-Hydroxy-4-((N-isobutyl-4-methoxyphenyl)sulfonamido)-1-phenylbutan-2-yl)carbamate] | 23 ± 0.1 nM | 1 | 11 | >3226 | IC50 (HIV-1NL4–3 [3]): 31 nM
